Results published in patent US9408891B2, “Methods of using gelsolin to treat or prevent bacterial sepsis” (priority 2003, dated 2016).
Entries after “also recorded” stand apart in the source; their conditions may differ.

Assays:
[1] = target: T1, gelsolin (Homo sapiens, UniProt P06396); assay: Actin severing activity of gelsolin (50 nM) with LTA or lysolipids; type: biochemical
Protocol: The tested gelsolin concentration was 50 nM; LTA ranged from 0-50 μM; Pyrene-F-actin was 0.3 μM. Recording changes in fluorescently-labeled (rhodamine B-labeled) gelsolin peptide PBP10 (10 μM), indicates a specific interaction between gelsolin and LTA.

[2] = system: actin-binding proteins; conditions: Yamamura et al., FEBS Lett. 1996; cited from earlier work
[3] = target: T1, gelsolin; conditions: Goetzl et al. 2000; cited from earlier work
[4] = system: binding of LPS-binding protein (LBP) to LPS; assay: Competition of gelsolin with 125I-LBP for LPS-coated wells (solid phase); conditions: nanomolar concentrations of gelsolin
Protocol: (§1) To determine competition between gelsolin and LPS-binding proteins (LPB), a high affinity carrier for LPS, the LPS-coated wells (1 nmole/per well of LPS Re-595 from Salmonella minnesota) were saturated by incubation (2 hours, 20° C.) with gelsolin 2 mg/ml in RPMI), washed and preincubated with different amount of recombinant human gelsolin (0-2 ng/well) in […] (0.5 mg/ml) containing RPMI. RPMI medium refers to Roswell Park Memorial Institute medium, typically used to culture human lymphoid cells. Then, 10 μl of ^125I-LPB (6×10^4 cpm) were added, and the plates were incubated for 90 minutes at 37° C., then washed six times with RPMI. After that, the bound radioactivity was measured.

[5] = system: LPS-binding protein (LBP); assay: Binding of 125I-LBP to gelsolin-coated wells
Protocol: as §1, with “[…]),” for “the LPS-coated wells (1 nmole/per well of LPS Re-595 from Salmonella minnesota) were saturated by incubation (2 hours, 20° C.) with gelsolin 2 mg/ml in RPMI),”

[6] = system: human aortic endothelial cells (HAEC); assay: LPS-induced actin cytoskeleton disassembly, phalloidin staining, endothelial cells; type: cell-based; conditions: 2 μM (10 μg/ml) LPS preincubated with 1.8 μM (0.16 mg/ml) gelsolin, 10 min, listed as plasma gelsolin
From the text: (§2) In light of the findings in the previous Examples, and using the materials prepared in above, the effect of the gelsolin binding by LPS was studied to determine the effect on cellular responses in vitro. Cell cultures of human aortic endothelial cells (HAEC) and rat primary astrocytes were used to evaluate the effect of LPS on actin. Both of these cell types have mCD14 (membrane bound C14) and TLR LPS receptors (Faure, et al., J. Biol. Chem. 275:11058-11063 (2000); Bsibsi, et al., J. Neuropathol. Exp. Neurol. 61:1013-1021 (2002); Bowman, et al., Glia 43:281-291 (2003)).
HAECs (primary human aortic endothelial cells) (ATCC, Rockville, Md. or Clonetics, San Diego, Calif.), will grow to confluence through passages 5-9 in endothelial cell growth medium supplemented with 2% fetal bovine serum, 10 μg/liter human recombinant epidermal growth factor, 1 mg/liter hydrocortisone, 50 μg/ml gentamicin, 50 ng/ml amphotericin-B, in a 37° C. humidified atmosphere of 95% air:5% C02.
(§3) HAECs and astrocytes cultures were incubated for 10 minutes in medium containing 10 μg/ml LPS alone, or LPS that had been pre-incubated with 0.16 mg/ml of human gelsolin. […] Location of transcription factor nuclear factor-kappaB (NF-κB) was observed using a monoclonal antibody to NF-κB (Molecular Probes), and cell nuclei were detected by counter-staining with 4′, 6-diamidino-2-phenylindole dihydrochloride (DAPI) (Sigma).

[7] = system: rat primary astrocytes; assay: LPS-induced actin cytoskeleton disassembly, phalloidin staining, astrocytes; type: cell-based; conditions: 2 μM (10 μg/ml) LPS preincubated with 1.8 μM (0.16 mg/ml) gelsolin, 10 min, listed as plasma gelsolin
From the text: as §2
Rat primary astrocytes were obtained from prenatal rats and maintained for 14 days in culture before use. Embryos (E17-E19) were removed by caesarian section from a Sprague-Dawley rat and the hippocampi were surgically removed. The tissue was digested in trypsin/DNAse at 37° C., centrifuged (1000×5 min) and filtered to derive suspensions from each pup. […]
as §3

[8] = system: NF-κB translocation in rat primary astrocytes; assay: NF-κB translocation to the nucleus in astrocytes; type: cell-based; conditions: LPS preincubated with 1.8 μM gelsolin, 2 hour incubation
Protocol: Rat primary astrocytes were obtained from prenatal rats and maintained for 14 days in culture before use. Embryos (E17-E19) were removed by caesarian section from a Sprague-Dawley rat and the hippocampi were surgically removed. The tissue was digested in trypsin/DNAse at 37° C., centrifuged (1000×5 min) and filtered to derive suspensions from each pup. Cells were grown in an incubator at 37° C. and 5% CO2 in DMEM (Dulbecco's Modified Eagle's Medium; BioWhittaker/Cambrex BioScience, East Rutherford, N.J.), supplemented with Ham's F12 (Sigma-Aldrich, St. Louis, Mo.) and 5% fetal bovine serum (FBS) (Hyclone, Logan, Utah) for 7 days, followed by an additional 7 days in Neurobasal medium (Gibco, Grand Island, N.Y.) also supplemented with 5% FBS, 2 mM l-glutamine, 50 μg/ml streptomycin and 50 U/ml penicillin. In each experiment, the medium was changed to serum-free at 6-12 hours prior to addition of LPS, TNF-α, or gelsolin.
HAECs and astrocytes cultures were incubated for 10 minutes in medium containing 10 μg/ml LPS alone, or LPS that had been pre-incubated with 0.16 mg/ml of human gelsolin. Cultures were fixed with ice-cold methanol and immunostained for F-actin with fluorescein isothiocyanate (FITC)-labeled phalloidin (Molecular Probes, Eugene, Oreg.). In astrocyte cultures, NF-κB translocation was manipulated by a 2 hour incubation in serum-free medium containing one of the following: 10 ng/ml TNF-α, 10 μg/ml LPS alone, or LPS that had been preincubated with 0.16 mg/ml human gelsolin. Location of transcription factor nuclear factor-kappaB (NF-κB) was observed using a monoclonal antibody to NF-κB (Molecular Probes), and cell nuclei were detected by counter-staining with 4′, 6-diamidino-2-phenylindole dihydrochloride (DAPI) (Sigma).

[9] = system: endotoxemic C57BL/6 mice (25 mg/kg LPS E. coli 055:B5 i.p.); assay: Mortality study of mice challenged with lethal E. coli LPS and treated with GSN, BSA or saline; type: in vivo, mouse
Protocol: To study the effect on mortality, animals are injected i.p. with 25 mg/kg LPS (E. coli 055:B5, Sigma) and each mouse is randomly selected to receive one of the following three treatments: 1) GSN (containing: 8 mg of recombinant human plasma gelsolin (Biogen-IDEC, Inc) containing 1 mM Ca dissolved in 400 μl of 0.15 M NaCl (saline); or 2) BSA (containing: 8 mg of bovine albumin (Serologicals Proteins, Inc, Kankakee, Ill.) containing 1 mM Ca dissolved in 400 μl of saline, or 3) saline (containing only 400 μl saline). The GSN (gelsolin), BSA or saline solutions are administered subcutaneously at the dorsal surface of each animal immediately after LPS instillation, and then repeated at 24, 48, and 72 hours.
There are 9 mice in the saline group and 8 mice each in the GSN group and the BSA group. Animals are monitored frequently, and mortality is recorded and presented at an interval of days. Animal mortality study data are presented as Kaplan-Meier curves and log-rank test is used to analyze treatment impact on animal mortality. Ap-value less than 0.05 is considered significant.
To measure gelsolin in vivo, a nucleation assay for plasma gelsolin is performed as follows: the collected mouse plasma is diluted 1:5 in Buffer B (0.1 M KCI, 0.2 mM MgCl2, 1 mM EGTA (ethyleneglycol-bis(2-aminoethyl) N,N,N′,N′,-tetraacetic acid), 0.5 mM ATP, 0.5 mM β-mercaptoethanol, 10 mM Tris-HCl buffer, pH 7.4). From the diluted plasma sample, 5 μl is added to 280 μl Buffer B supplemented with 1.5 mm […] and 0.4 μM phallacidin in 6×50 mm borosilicate culture tubes. The actin polymerization reaction is initiated by adding 15 μl 20 μM pyrene-actin in Buffer A (0.5 mM ATP, 0.5 mM β-mercaptoethanol, 0.2 mM CaCl2 […] buffer, pH 7.4). Polymerization is monitored for 200 seconds in a spectrofluorimeter at excitation and emission wavelengths of 366 and 386 nm respectively. Gelsolin concentrations are estimated from a standard curve using recombinant human plasma gelsolin.

[10] = system: human neutrophils / human aortic endothelial cells (HAEC); assay: Neutrophil adhesion to LTA-stimulated HAEC; type: cell-based; conditions: gelsolin 2 μM added along with LTA 10 μg/ml
From the text: To investigate whether gelsolin can prevent gram-positive bacterial inflammation, the effect of LTA-mediated activation of human neutrophils was examined. Neutrophils were selected because their adhesion to human aorta endothelial cells (HAEC) is a hallmark of inflammation.
Neutrophils were isolated from human blood using the endotoxin-free Lympholyte-poly kit (Cedarlane, Ontario, Canada). The isolated neutrophil cells were resuspended in RPMI media. […] To quantify the adhesion, the neutrophils were labeled with calcein-AM (5 μM for 30 minutes at 37° C.).

[11] = target: T2, recombinant human gelsolin (rhGLS) (Homo sapiens, UniProt P06396); assay: Change of gelsolin OD at 280 nm after adding lipids; type: binding; conditions: OD 280 nm
T2 construct: purchased Biogen IDEC, Inc., Cambridge, Mass; host or cells: E. coli
T2 sequence (P06396 28-782): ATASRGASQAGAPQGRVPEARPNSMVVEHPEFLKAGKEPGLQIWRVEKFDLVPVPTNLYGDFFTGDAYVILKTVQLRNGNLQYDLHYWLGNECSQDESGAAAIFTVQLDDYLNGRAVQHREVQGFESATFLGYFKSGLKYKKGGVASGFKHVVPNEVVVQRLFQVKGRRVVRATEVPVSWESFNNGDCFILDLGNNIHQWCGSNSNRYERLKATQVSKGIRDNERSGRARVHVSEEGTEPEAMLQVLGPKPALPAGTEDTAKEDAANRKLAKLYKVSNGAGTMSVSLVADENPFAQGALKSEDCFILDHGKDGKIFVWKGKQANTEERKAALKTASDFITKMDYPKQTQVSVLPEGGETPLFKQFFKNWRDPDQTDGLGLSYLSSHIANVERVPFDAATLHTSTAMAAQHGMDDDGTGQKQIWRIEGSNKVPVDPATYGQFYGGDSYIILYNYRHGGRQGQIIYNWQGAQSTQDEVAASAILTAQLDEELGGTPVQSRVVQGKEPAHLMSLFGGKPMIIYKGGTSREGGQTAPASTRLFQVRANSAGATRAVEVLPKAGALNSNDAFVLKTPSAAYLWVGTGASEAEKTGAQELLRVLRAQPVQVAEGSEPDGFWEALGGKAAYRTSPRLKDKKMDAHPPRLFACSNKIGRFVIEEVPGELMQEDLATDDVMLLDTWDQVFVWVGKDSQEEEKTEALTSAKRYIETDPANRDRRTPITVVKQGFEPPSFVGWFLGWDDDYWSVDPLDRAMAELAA
Protocol: (§4) Therefore, to determine changes of gelsolin OD at 280 nm, different amounts of LPS, LPA and PS were added to recombinant human gelsolin (rhGLS) solutions and OD emission spectra were recorded using spectrophotometer Genesys 6 (Thermo-Spectronic, USA).

[12] = target: T3, pyrene-labeled SEQ ID No:1 (gelsolin residues 160-169) (Homo sapiens, UniProt P06396); assay: Pyrene excimer fluorescence of pyrene-labeled SEQ ID No:1 after adding lipids; type: binding; conditions: 2 μM pyrene peptide
T3 construct: made in house; host or cells: solid phase peptide synthesis
Protocol: as §4
Interaction of LPS and gelsolin was examined using rhodamine B- and pyrene-labeled SEQ ID No:1 (QRLFQVKGRR). The effect of LPS on gelsolin was determined in terms of the rhodamine-B fluorescent changes of PBP10 peptide in the presence of different lipids (FIG. 1C); and the fluorescence emission spectra of pyrene-labeled SEQ ID No:1 (2 μM) in the presence of LPS from Escherichia coli (1.2 μM), PIP2 (0.82 μM) and LPA (0.82 μM) (FIG. 1D) The results using the pyrene-derivatized gelsolin peptide confirmed the LPS induced clustering of the peptide with resulting excimer fluorescence of the pyrene group, which was evident as a large increase in fluorescence emission at 480 nm.

[13] = target: T2, recombinant human gelsolin (rhGLS); assay: Actin filament severing activity of purified gelsolin (pyrene F-actin depolymerization); type: biochemical; conditions: molar basis comparison
Protocol: To determine gelsolin's severing activity, rates of fluorescence decrease were evaluated during depolymerization. Monomeric G-actin was prepared from an acetone powder of rabbit skeletal muscle according to previously published methods (Spudich et al., J. Biol. Chem […]). The non-polymerizing solution contained 2 mM TRIS, 0.2 mM CaCl2, 0.5 mM ATP (adenosine triphosphate), 0.2 mM DTT (dithiothreitol) pH 7.4. Actin was polymerized by adding 150 mM KCl and 2 mM MgCl2 to the G-actin solutions and incubating for 1 hour at room temperature.
For F-actin severing assays, in general, a small volume (typically 5 μl) of the gelsolin composition is added to a similar volume of pyrene-labeled F-actin at a concentration adjusted to provide an actin:gelsolin ratio of approximately 10:1 (typically 1 μM gelsolin and 10 μM actin). This mixture is the diluted to 0.5 μM in a larger volume of F-actin buffer, and the filament severing efficiency is calculated from the initial slope of the fluorescence change. This reflects the rate of depolymerization that, in turn, is proportional to the number of cuts made by gelsolin. The LPS/gelsolin reaction can be done under any ionic condition, and the addition to F-actin requires the presence of […] Ca^2+ to activate the gelsolin. […] The actin nucleation reaction is similar except that in the latter case, the gelsolin/LPS mixture is added to a more dilute solution of G-actin (typically, 1 or 2 μM) in low ionic strength buffer followed immediately by addition of 150 mM KCI and 2 mM MgCl2 to initiate polymerization.
As shown, recombinant human gelsolin (rhGLS) (FIG. 4A) and blood serum (FIG. 4B) severing activity was measured in 0.4 μM pyrene-labeled F-actin samples (polymerized with 50% pyrene-labeled G-actin), after adding gelsolin (16 nM)/serum (2.5 μl), or their combination with one of the following: LPS (from different species), PIP2 (phosphatidyl-inositol-4,5-bisphosphate), LPA (lysophosphatidic acid), lipid A (the LPS derivative lacking polysaccharide) or PS (phosphatidylserine). The fluorescence intensity of F-pyrene actin was then monitored for 10 minutes, and the severing activity was calculated based on decreasing fluorescence. Severing activity was determined from a decrease in rate of fluorescence during depolymerization, and the depolymerization rate was calculated from the slope of the early decrease in fluorescence.

T1 sequence (P06396 28-782): as above

Compound: CCCCCCCCCCCCC/C=C/[C@@H](O)[C@@H](N)COP(=O)(O)O [S1P, Sphingosine-1-phosphate]
- inhibition of gelsolin at higher lipid concentrations ([1]; above 1 μM): abrupt drop-off of activity
- inhibition of gelsolin by lysolipids ([1]; lipid below 1 μM): at least as strongly as lysophosphatidic acid (LPA); also recorded: also inhibit gelsolin; also recorded: as least as strongly as LPA does
- maximal dissociation [2]: 10%
- binding of S1P by gelsolin [3]: did not bind

Compound: gelsolin
- inhibition of 125I-LBP binding to LPS coated wells [4]: 69±6%
- direct binding of 125I-LBP to gelsolin-coated surfaces [5]: did not bind to gelsolin-coated surfaces; also recorded: does not interact directly with the LBP; also recorded: does not bind to gelsolin-coated surfaces
- effect of gelsolin-preincubated LPS on actin cytoskeleton [6]: no discernable effect on the actin cytoskeletons; also recorded: prevented LPS-induced actin cytoskeleton disassembly
- effect of gelsolin-preincubated LPS on actin cytoskeleton [7]: no discernable effect on the actin cytoskeletons; also recorded: prevented LPS-induced actin cytoskeleton disassembly
- blocking of LPS-induced NF-κB translocation [8]: completely blocked; also recorded: blocked LPS-induced translocation; also recorded: blocked by pre-incubation with gelsolin
- survival compared to saline or BSA controls ([9]; 8 mg s.c. immediately after LPS and at 24, 48, 72 hours, listed as plasma gelsolin): rescues the endotoxemic mice; also recorded: markedly improved survival
- condition of surviving mice ([9]; Day 7 / after 1 week): complete recovery
- plasma gelsolin level restored in LPS-treated animals ([9]; s.c. administration): 200 µg/mL
- effect on neutrophil adhesion to LTA-stimulated HAEC [10]: inhibit neutrophil adhesion; also recorded: reduced to near baseline values; also recorded: prevents LTA activation of endothelial cells

Compound: phosphatidylserine [PS]
- effect on absorbance of gelsolin [11]: had no effect
- induction of pyrene excimer formation (emission 480 nm) [12]: had no effect
- inhibitory effect on severing activity of purified gelsolin [13]: had no effect; also recorded: no inhibitory effect; also recorded: have no effect
